# Measurements taken from patent publication US20160243151A1, “CO-RELEASING COMPOUNDS & FORMULATIONS THEREOF USEFUL FOR INDUCING MITOCHONDRIAL BIOGENESIS AND TISSUE REPAIR” (UNIVERSITÄT ZÜRICH, priority 2013, published 2016).
# Experiments:
# H9c2 cells [1] = assay: Western blot densitometry in H9c2 cells exposed to DOX; assay type: cell-based, rat; conditions: +DOX (0.5 μg/ml), 3 days of differentiation
# Experimental: (§1) Cell culture and treatments. H9c2 cells (embryonic rat cardiomyocytes; ATCC) were maintained in DMEM (Invitrogen) supplemented with 10% fetal bovine serum (Invitrogen) and 2 mmol/l 1-glutamine. Cells were plated on 35- or 100-mm dishes in DMEM with 2% FCS for differentiation. Doxorubicin (DOX) was added to complete medium and incubated at 37° C. for different intervals at a concentration (0.5 μg/ml) similar to the plasma concentrations encountered in clinical use. Some cells were exposed to B12-CORM2 (25 μM) with or without DOX. Cells collected after 3 days of differentiation.
# Differentiation assessment. Western blot analysis and densitometry were performed relative to tubulin for alpha-actinin as a specific marker of cardiomyocyte differentiation and intactness of the contractile apparatus.
# Mitochondrial integrity and density assessment. Western blot analysis and densitometry were performed relative to tubulin for citrate synthase.
# DOX and/or B12-CORM2 were added complete medium on day 1.
# H9c2 cells [2] = assay: cell survival by Trypan blue exclusion in H9c2 cells exposed to DOX; assay type: cell-based, rat; conditions: +DOX (0.5 μg/ml)
# Experimental: as §1
# Cell survival. Cell survival was measured by Trypan blue exclusion.
# DOX and/or B12-CORM2 were added complete medium on day 1. […] Mitochondrial protection was accompanied by improved cell survival of B12-CORM2-treated cells exposed to DOX, as assessed by Trypan blue exclusion (Table 5).
# E14 ESC embryoid bodies = assay: beating embryoid body out-growths; assay type: cell-based, mouse; conditions: MitoQ given in the initial five days of differentiation
# Experimental: Culture and differentiation of murine E14 cells, murine D3 cells and human MEL1 cells. These cell lines were independently grown at 37° C. in 5% CO2 on gelatin-coated substrates prepared by coating plastic tissue culture flasks with a 0.1% gelatin solution. Cells were maintained in a standard medium (Iscove's Modified Dulbecco's Medium, Invitrogen) plus 15% newborn calf serum, non-essential amino acids, and nucleosides stock. Leukemia inhibitory factor (LIF) (Chemicon) at a final concentration of 1,000 U/ml and 100 μM 2-mercaptoethanol were added to standard medium to prevent differentiation. For the induction of differentiation the hanging drop method such as described in Keller, 1995, Curr. Opin. Cell. Biol., 7(6), 862-9 was used. E14 cells were cultivated without LIF in hanging drops to form embryoid bodies (EBs) ([…] cells per drop) for 2 days, then kept in suspension for 2 days, and finally plated on gelatin-coated, 96 well, single-culture dishes or single well slides. […] Adhered EBs monitored daily under an inverted microscope for spontaneously beating foci from day 3 onward until day 13. In total, 3×96 EBs from E14 cells were monitored. To confirm that the increase in contracting EBs is HO-1/CO-mediated, E14 cells were transduced with Sh-HO1 vector or empty vector, differentiated as above and monitored by fluorescence microscopy. […]
# Hepa 1-6 cells [3] = assay: MTT reduction assay in Hepa 1-6 cells; assay type: cell-based, mouse; conditions: control and cytomix-exposed cells, 24 h
# Experimental: Mouse hepatoma cells (ATCC, CRL-1830) were grown to near confluence according to the manufacturer's instructions and then exposed to cytomix (a) for 24 hours. At the time of cytomix exposure, cells were treated with B12-CORM2 (25 μM) (b) or the other compounds shown in panel (A). […] (B) shown the relative mRNA levels for the pro-inflammatory enzyme NOS2 (black) and the anti-inflammatory cytokine interleukin 10 (IL10) (white), as measured by real time RT-PCR. Control and cytomix-treated cells were harvested, disrupted, and total RNA extracted. Both gene products increased in response to cytomix, but B12-CORM2 reduced NOS2 and enhanced IL10 expression. […]
# Metabolic capacity assessment: The metabolic state of Hepa 1-6 liver cells was measured using the MTT (3-(4,5-dimethylthiazol-2-yl)-2,5-diphenyltetrazolium bromide, a yellow tetrazole) reduction assay. MTT is reduced to the purple formazan by living cells, which is detected colorimetrically (at 570 nm). […]
# Cytomix damages and kills liver cells such as Hepa 1-6 cells. The metabolic state of Hepa 1-6 liver cells were measured using the MTT reduction assay. MTT (3-(4,5-dimethylthiazol-2-yl)-2,5-diphenyltetrazolium bromide, a yellow tetrazole) is reduced to the purple formazan by living cells, which is detected colorimetrically. […]
# Hepa 1-6 cells [4] = assay: NOS2 and IL10 mRNA in cytomix-exposed Hepa 1-6 cells; assay type: cell-based, mouse; conditions: cytomix 24 h
# Experimental: Mouse hepatoma cells (ATCC, CRL-1830) were grown to near confluence according to the manufacturer's instructions and then exposed to cytomix (a) for 24 hours. At the time of cytomix exposure, cells were treated with B12-CORM2 (25 μM) (b) or the other compounds shown in panel (A). […] (B) shown the relative mRNA levels for the pro-inflammatory enzyme NOS2 (black) and the anti-inflammatory cytokine interleukin 10 (IL10) (white), as measured by real time RT-PCR. Control and cytomix-treated cells were harvested, disrupted, and total RNA extracted. Both gene products increased in response to cytomix, but B12-CORM2 reduced NOS2 and enhanced IL10 expression. […] Moreover, administration of the low molecular weight anti-oxidant N-acetyl cysteine (NAC, 5 mM) (d) abrogates the anti-inflammatory effect of the Re-based CORM according to the invention in accordance with the proposed redox mechanism of action. Finally, the NF-kB inhibitor BAY11 (BAY 11-7082, Santa Cruz) (e) fully blocks the cytomix effect on NOS2, but only partially reduces the effect on IL-10, indicating the NF-kB-independent mechanism of action of B12-CORM2 (*, P<0.05 compared with control cells; #, P<0.05 compared with cytomix treatment). […]
# Inflammation assessment. The mRNA levels for the pro-inflammatory enzyme NOS2 and the anti-inflammatory cytokine interleukin 10 (IL10) were measured by real time RT-PCR.
compound,measurement,setting,value
"COc1cccc2c1C(=O)c1c(O)c3c(c(O)c1C2=O)C[C@@](O)(C(=O)CO)C[C@@H]3O[C@H]1C[C@H](N)[C@H](O)[C@H](C)O1 [DOX, Doxorubicin]",Alpha actinin expression levels (% as compared to untreated cells),H9c2 cells [1],57.1% (11)
same,Citrate synthase expression levels (% as compared to untreated cells),H9c2 cells [1],60% (12.3)
same,Surviving cells (% as compared to untreated cells),H9c2 cells [2],61% (9.9)
COC1=C(OC)C(=O)C(CCCCCCCCCC[P+](c2ccccc2)(c2ccccc2)c2ccccc2)=C(C)C1=O [MitoQ],effect on B12-CORM2-induced percentage of beating EB,E14 ESC embryoid bodies,the B12-CORM2 effect was blocked
hemin,MTT reduction (metabolic capacity),Hepa 1-6 cells [3],did not provide any protection against the cytomix-induced damage
"CC(=O)N[C@@H](CS)C(=O)O [NAC, N-acetyl cysteine]","inflammatory response to cytomix (NOS2, IL10 mRNA)",Hepa 1-6 cells [4],not protective
Cc1ccc(S(=O)(=O)/C=C/C#N)cc1 [BAY11],cytomix effect on NOS2 induction,Hepa 1-6 cells [4],fully blocks the cytomix effect on NOS2 induction
